System: hERG channel-expressing cells
Experimental: Specifically, changes in membrane potential may be measured by performing the following operations in a manner as described below. The hERG channel-expressing cell of the invention is cultured for a specific period of time by the appropriate method as described above and suspended in a buffer suitable for measurement. […] Preferably, phosphate buffered saline (pH 7.4) is used. It is preferred that the cell suspension be prepared to give a concentration of 0.2×10^5 cells/ml to 1.0×10^6 cells/ml. Subsequently, the cell suspension is plated on plates (such as Biocoat Poly-D-Lysine 384-Well Black/Clear Plate; BECKTON DICKINSON) and cultured further Cells may be plated at 500 cells/well to 25000 cells/well. Preferably, cells are cultured for about two days after the plating. […] About one hour after the addition of Component A, changes in membrane potential may be measured with FLIPR (Molecular Devices) or FDSS6000 (Hamamatsu Photonics). […] Measurement may be performed at room temperature. hERG inhibitory activity may be calculated from the change in fluorescence intensity caused by the addition of the test compound. […]
About one hour after the addition of Component A, changes in membrane potential were measured with FDSS6000. […] Measurement was performed at room temperature. hERG inhibitory activity was calculated from the fluorescence intensity change for 5 min after the addition of the test substance. […]

[Cl-].[K+] [KCl]
changes in membrane potential (fluorescence intensity change): the membrane potential was depolarized

From patent publication US7935526B2, “hERG channel-expressing cell” (priority 2003, dated 2011)
